The text below walks through data of patent US20230295096A1, “PYRAZOLE CARBOXAMIDE COMPOUNDS FOR TREATMENT OF HBV” (ASSEMBLY BIOSCIENCES, INC., priority 2020, published 2023).

In the test the test system is HBV. Put plainly: Viral load production from HepAD38 cells, qPCR of the HBV core sequence in supernatant. Type of test: cell-based. The note with it: Hepatitis B virus, HePAD38, 120 h, HepAD38 cells, 5 days, HBV DNA in supernatant by qPCR; Table 1 ranges; read-out: Activity (viral load lowering EC50). The method, boiled down:
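EC50 and CC50 come from four-parameter logistic fits of supernatant HBV core DNA (TaqMan qPCR, DNA standards, compared with DMSO wells) and of CellTiter-Glo luminescence.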
Background: Quantitative PCR measures a nucleic acid by following its amplification.
As to `Cn1nc(C2CC3CC(CNC(=O)c4ccc(C(F)(F)F)cc4)CC3C2)c(C(=O)Nc2ccc(F)c(Cl)c2)c1N` (stereo not shown) [Example 57, 5-Amino-N-(3-chloro-4-fluorophenyl)-1-methyl-3-(5-((4-(trifluoromethyl)benzamido)methyl)octahydropentalen-2-yl)-1H-pyrazole-4-carboxamide], the EC50 was 10 to 50 nM.

With `Cn1nc(C2CC3CC(CNC(=O)c4cnc(C(F)(F)F)s4)CC3C2)c(C(=O)Nc2ccc(F)c(Cl)c2)c1N` (stereo not shown) [Example 58, N-((5-(5-Amino-4-((3-chloro-4-fluorophenyl)carbamoyl)-1-methyl-1H-pyrazol-3-yl)octahydropentalen-2-yl)methyl)-2-(trifluoromethyl)thiazole-5-carboxamide], the EC50 lay in the range of 10 to 50 nM. Regarding `Cc1noc(C)c1C(=O)NCC1CC2CC(c3nn(C)c(N)c3C(=O)Nc3ccc(F)c(Cl)c3)CC2C1` (stereo not shown) [Example 59, N-((5-(5-Amino-4-((3-chloro-4-fluorophenyl)carbamoyl)-1-methyl-1H-pyrazol-3-yl)octahydropentalen-2-yl)methyl)-3,5-dimethylisoxazole-4-carboxamide], the EC50 was less than 10 nM. Turning to `Cn1nc(C2CC3CC(CNC(=O)c4ccns4)CC3C2)c(C(=O)Nc2ccc(F)c(Cl)c2)c1N` (stereo not shown) [Example 60, N-((5-(5-Amino-4-((3-chloro-4-fluorophenyl)carbamoyl)-1-methyl-1H-pyrazol-3-yl)octahydropentalen-2-yl)methyl)isothiazole-5-carboxamide], the EC50 is less than 10 nM. Regarding `Cn1nc(C2CC3CC(CNC(=O)c4cncc(F)c4)CC3C2)c(C(=O)Nc2ccc(F)c(Cl)c2)c1N` (stereo not shown) [Example 61, N-((5-(5-Amino-4-((3-chloro-4-fluorophenyl)carbamoyl)-1-methyl-1H-pyrazol-3-yl)octahydropentalen-2-yl)methyl)-5-fluoronicotinamide], the EC50 was less than 10 nM. On to `Cn1nc(C2CC3CC(CNC(=O)C4CCN(C(=O)OC(C)(C)C)CC4)CC3C2)c(C(=O)Nc2ccc(F)c(Cl)c2)c1N` (stereo not shown) [Example 62, tert-Butyl 4-(((5-(5-amino-4-((3-chloro-4-fluorophenyl)carbamoyl)-1-methyl-1H-pyrazol-3-yl)octahydropentalen-2-yl)methyl)carbamoyl)piperidine-1-carboxylate], for which the EC50 is less than 10 nM.

Consider `Cn1nc(C2CC3CC(CNC(=O)C(C)(C)C4CCOCC4)CC3C2)c(C(=O)Nc2ccc(F)c(Cl)c2)c1N` (stereo not shown) [Example 63, 5-Amino-N-(3-chloro-4-fluorophenyl)-1-methyl-3-(5-((2-methyl-2-(tetrahydro-2H-pyran-4-yl)propanamido)methyl)octahydropentalen-2-yl)-1H-pyrazole-4-carboxamide], for which the EC50 fell in the range of 10 to 50 nM. In the case of `Cn1nc(C2CC3CC(CNC(=O)C4(C)COC4)CC3C2)c(C(=O)Nc2ccc(F)c(Cl)c2)c1N` (stereo not shown) [Example 64, 5-Amino-N-(3-chloro-4-fluorophenyl)-1-methyl-3-(5-((3-methyloxetane-3-carboxamido)methyl)octahydropentalen-2-yl)-1H-pyrazole-4-carboxamide], the EC50 is less than 10 nM. For the compound `Cn1nc(C2CC3CC(CNC(=O)C4(C)CC4)CC3C2)c(C(=O)Nc2ccc(F)c(Cl)c2)c1N` (stereo not shown) [Example 65, 5-Amino-N-(3-chloro-4-fluorophenyl)-1-methyl-3-(5-((1-methylcyclopropane-1-carboxamido)methyl)octahydropentalen-2-yl)-1H-pyrazole-4-carboxamide], the EC50 was less than 10 nM. For the compound `Cn1nc(C2CC3CC(CNC(=O)C(C)(C)C(F)(F)F)CC3C2)c(C(=O)Nc2ccc(F)c(Cl)c2)c1N` (stereo not shown) [Example 66, 5-Amino-N-(3-chloro-4-fluorophenyl)-1-methyl-3-(5-((3,3,3-trifluoro-2,2-dimethylpropanamido)methyl)octahydropentalen-2-yl)-1H-pyrazole-4-carboxamide], the half-maximal effective concentration (EC50) lay within 10 to 50 nM.

Usually EC50 stands for the concentration at which the effect is half-maximal.
